Patent US11592445B2, “OLFR90 specificity and methods of detection” (THE JOHNS HOPKINS UNIVERSITY, priority 2016, dated 2023)

Target: T1, Olfr90 (Mus musculus, UniProt Q0VEL5)
T1 construct: Flag; expressed in transfected cells; host or cells: HEK293T
T1 sequence (Q0VEL5 1-310): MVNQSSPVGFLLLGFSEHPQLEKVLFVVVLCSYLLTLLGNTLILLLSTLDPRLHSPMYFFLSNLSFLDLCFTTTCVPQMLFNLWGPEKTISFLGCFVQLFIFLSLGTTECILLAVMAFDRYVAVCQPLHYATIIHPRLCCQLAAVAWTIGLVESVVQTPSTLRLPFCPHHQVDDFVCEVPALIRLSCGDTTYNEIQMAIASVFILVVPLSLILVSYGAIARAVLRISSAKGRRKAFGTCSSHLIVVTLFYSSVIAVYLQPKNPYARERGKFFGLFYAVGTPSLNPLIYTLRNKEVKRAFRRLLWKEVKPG
Experiment: Luciferase reporter assay for ligand screening, HEK293T cells transfected with Lucy-Olfr90
Assay type: cell-based
Conditions: FIG. 2: p<0.0005 for all conditions vs 0 mM
Excerpt: HEK293T cells were transfected with Lucy-Olfr90 and two luciferase constructs, one of which was constitutively active (Renilla) while the other was only activated by an increase in intracellular cyclic AMP due to ligand binding (Firefly).
A luciferase reporter assay was employed for ligand screening (FIG. 1). In this assay, Olfr90 may be transfected into HEK293T cells along with a firefly luciferase construct whose activity is dependent upon elevated [cAMP]i. Upon binding its ligand, the expressed Olfr90 increases [cAMP]i, leading to increased transcription of firefly luciferase (FIG. 1). A constitutively active luciferase (Renilla) is co-transfected; therefore, the ratio of Firefly/Renilla is a measure of OR activation.
In this assay, it is essential that the Olfr90 is on the cell surface. […] A novel N-terminal tag which allows for surface trafficking of the majority of the renal Olfr90 was used. This tag is a leucine rich 17 amino acid sequence (“Lucy” tag) that not only aids in trafficking to the surface, but is cleaved before the Olfr90 reaches the cell surface.
In HEK cells or hana3 cells, Olfr90 will be expressed along with along with a firefly luciferase construct whose activity is dependent upon elevated [cAMP]i. Olfr90 may be transfected with or without various chaperones (Ric8b, RTP1S, REEP, etc.) and with or without various tags (Rho, Flag, Lucy, etc.). Upon binding its ligand, the expressed OR increases [cAMP]i, leading to increased transcription of firefly luciferase. A constitutively active luciferase (Renilla) is co-transfected; therefore, the ratio of Firefly/Renilla is a measure of OR activation.

SMILES | Olfr90 response (luciferase output, Firefly/Renilla ratio) to isolated chemicals
C=CC(C)(O)CCC=C(C)C (stereo not drawn) [Linalool] | responded in a dose dependent manner
CCCC1CCSC(C)O1 (stereo not drawn) [MPOT, 2-Methyl-4-Propyl-3,1-Oxathiane] | responded in a dose dependent manner
C=CC(O)CCCCC (stereo not drawn) [Odorant 1-Octen-3-ol, 1-Octen-3-ol] | responded in a dose dependent manner
